These molecules were tested on Aβ1-42 production (assay: Cellular assay for inhibition of Aβ1-42 production (H4 APP751 SWE clone 8.20)). Conditions: 19 h, H4 APP751 SWE clone 8.20 cells, 19 h incubation; class symbols; read-out: Activity Rating (Aβ42 cellular IC50).
Type: cell-based
Method in brief: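 Inhibition values are IC50s fitted to Viewlux counts after a 19 h compound exposure at 37 °C. Aβ42 was captured by the neoepitope-specific antibody 565 (0.8 ng/well) paired with N-terminal 26D6 (75 ng/well), incubated overnight at 4 °C in pH 7.4 Tris-HCl buffer containing 0.2% BSA.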

Row | IC50 | Structure (SMILES)
1 | 10 to 100 nM | CCOC1CN(c2nc(Nc3ccc(-n4cnc(Cl)c4)c(OC)c3)nc3c2CCC3c2ccc(F)cc2)C1 (stereo not shown) [Example 187, N-(4-(4-chloro-1H-imidazol-1-yl)-3-methoxyphenyl)-4-(3-ethoxyazetidin-1-yl)-7-(4-fluorophenyl)-6,7-dihydro-5H-cyclopenta[d]pyrimidin-2-amine]
2 | 10 to 100 nM | COc1cc(Nc2nc3c(c(N4CC(C)(OC)C4)n2)CCC3c2ccc(F)cc2)ccc1-n1cnc(Cl)c1 (stereo not shown) [Example 191, N-(4-(4-chloro-1H-imidazol-1-yl)-3-methoxyphenyl)-7-(4-fluorophenyl)-4-(3-methoxy-3-methylazetidin-1-yl)-6,7-dihydro-5H-cyclopenta[d]pyrimidin-2-amine]
3 | 10 to 100 nM | CNc1nc(Nc2ccc(-n3cnc(C)n3)c(OC)c2)nc2c1CCC2c1ccc(F)cc1F (stereo not shown) [Example 193, 7-(2,4-difluorophenyl)-N2-(3-methoxy-4-(3-methyl-1H-1,2,4-triazol-1-yl)phenyl)-N4-methyl-6,7-dihydro-5H-cyclopenta[d]pyrimidine-2,4-diamine]

Further lines, the molecule ahead of its results:

Row | Structure (SMILES) | IC50
4 | CCNc1nc(Nc2ccc(-n3ncnc3C)c(F)c2)nc2c1CN(CC(F)F)CC2c1ccccc1 (stereo not shown) [Example 194, 6-(2,2-difluoroethyl)-N4-ethyl-N2-(3-fluoro-4-(5-methyl-1H-1,2,4-triazol-1-yl)phenyl)-8-phenyl-5,6,7,8-tetrahydropyrido[4,3-d]pyrimidine-2,4-diamine] | 10 to 100 nM
5 | CCNc1nc(Nc2ccc(-n3cnc(C)n3)c(F)c2)nc2c1CN(CC(F)F)CC2c1ccccc1 (stereo not shown) [Example 195B, 6-(2,2-difluoroethyl)-N4-ethyl-N2-(3-fluoro-4-(3-methyl-1H-1,2,4-triazol-1-yl)phenyl)-8-phenyl-5,6,7,8-tetrahydropyrido[4,3-d]pyrimidine-2,4-diamine] | 100 to 1000 nM

Same assay, conditions: 19 h, H4 APP751 SWE clone 8.20 cells, 19 h incubation; read-out: Activity Rating (Aβ42 cellular IC50), numeric value

Row | IC50 | Structure (SMILES)
6 | 37 nM | COc1cc(Nc2nc3c(c(N4CC(C)(F)C4)n2)CCC3c2ccc(F)cc2)ccc1-n1cnc(Cl)c1 (stereo not shown) [Example 190, N-(4-(4-chloro-1H-imidazol-1-yl)-3-methoxyphenyl)-4-(3-fluoro-3-methylazetidin-1-yl)-7-(4-fluorophenyl)-6,7-dihydro-5H-cyclopenta[d]pyrimidin-2-amine]
7 | 96 nM | COc1cc(Nc2nc3c(c(N4CC(C)(OC)C4)n2)CCC3c2ccc(F)cc2)ccc1-n1cnc(Cl)c1 (stereo not shown) [Example 191B, N-(4-(4-chloro-1H-imidazol-1-yl)-3-methoxyphenyl)-7-(4-fluorophenyl)-4-(3-methoxy-3-methylazetidin-1-yl)-6,7-dihydro-5H-cyclopenta[d]pyrimidin-2-amine]

Continued, molecule first:

Row | Structure (SMILES) | IC50
8 | COc1cc(Nc2nc3c(c(N4CC5(CCCO5)C4)n2)CCC3c2ccccc2)ccc1-n1cnc(Cl)c1 (stereo not shown) [Example 188, N-(4-(4-chloro-1H-imidazol-1-yl)-3-methoxyphenyl)-7-phenyl-4-(5-oxa-2-azaspiro[3.4]octan-2-yl)-6,7-dihydro-5H-cyclopenta[d]pyrimidin-2-amine] | 19 nM
9 | CCNc1nc(Nc2ccc(-n3ncnc3C)c(F)c2)nc2c1CN(CC(F)F)CC2c1ccccc1 (stereo not shown) [Example 194B, 6-(2,2-difluoroethyl)-N4-ethyl-N2-(3-fluoro-4-(5-methyl-1H-1,2,4-triazol-1-yl)phenyl)-8-phenyl-5,6,7,8-tetrahydropyrido[4,3-d]pyrimidine-2,4-diamine] | 175 nM
10 | CCNc1nc(Nc2ccc(-n3cnc(C)n3)c(F)c2)nc2c1CN(CC(F)F)CC2c1ccccc1 (stereo not shown) [Example 195, 6-(2,2-difluoroethyl)-N4-ethyl-N2-(3-fluoro-4-(3-methyl-1H-1,2,4-triazol-1-yl)phenyl)-8-phenyl-5,6,7,8-tetrahydropyrido[4,3-d]pyrimidine-2,4-diamine] | 17 nM
11 | CCNc1nc(Nc2ccc(-n3cnc(Cl)c3)c(OC)c2)nc2c1CN(CC(F)(F)F)CC2c1ccccc1 (stereo not shown) [Example 196B] | 54 nM

Same assay, conditions: H4 APP751 SWE clone 8.20 cells, 19 h incubation; class symbols; read-out: Activity Rating (Aβ42 cellular IC50)

Row | IC50 | Structure (SMILES)
12 | 1.5 to 9.9 nM | COc1cc(Nc2nc3c(c(N4CC(C)(O)C4)n2)CCC3c2ccc(F)cc2)ccc1-n1cnc(Cl)c1 (stereo not shown) [Example 189, 1-(2-(4-(4-chloro-1H-imidazol-1-yl)-3-methoxyphenylamino)-7-(4-fluorophenyl)-6,7-dihydro-5H-cyclopenta[d]pyrimidin-4-yl)-3-methylazetidin-3-ol]
13 | 1.5 to 9.9 nM | COc1cc(Nc2nc3c(c(N4CC(C)(O)C4)n2)CCC3c2ccc(F)cc2)ccc1-n1cnc(Cl)c1 (stereo not shown) [Example 189A, 1-(2-(4-(4-chloro-1H-imidazol-1-yl)-3-methoxyphenylamino)-7-(4-fluorophenyl)-6,7-dihydro-5H-cyclopenta[d]pyrimidin-4-yl)-3-methylazetidin-3-ol]
14 | 10 to 100 nM | COc1cc(Nc2nc3c(c(N4CC(C)(O)C4)n2)CCC3c2ccc(F)cc2)ccc1-n1cnc(Cl)c1 (stereo not shown) [Example 189B, 1-(2-(4-(4-chloro-1H-imidazol-1-yl)-3-methoxyphenylamino)-7-(4-fluorophenyl)-6,7-dihydro-5H-cyclopenta[d]pyrimidin-4-yl)-3-methylazetidin-3-ol]

The next lines start with the molecule.

Row | Structure (SMILES) | IC50
15 | CCNc1nc(Nc2ccc(-n3cnc(Cl)c3)c(OC)c2)nc2c1CN(CC(F)(F)F)CC2c1ccccc1 (stereo not shown) [Example 196A] | 1.5 to 9.9 nM
16 | CCNc1nc(Nc2ccc(-n3cnc(Cl)c3)c(OC)c2)nc2c1CN(CC(F)(F)F)CC2c1ccccc1 (stereo not shown) [Example 196] | 10 to 100 nM

Same assay, conditions: H4 APP751 SWE clone 8.20 cells, 19 h incubation; read-out: Activity Rating (Aβ42 cellular IC50), numeric value

Row | IC50 | Structure (SMILES)
17 | 64 nM | COc1cc(Nc2nc3c(c(N4CC(C)(OC)C4)n2)CCC3c2ccc(F)cc2)ccc1-n1cnc(C)n1 (stereo not shown) [Example 192, 7-(4-fluorophenyl)-4-(3-methoxy-3-methylazetidin-1-yl)-N-(3-methoxy-4-(3-methyl-1H-1,2,4-triazol-1-yl)phenyl)-6,7-dihydro-5H-cyclopenta[d]pyrimidin-2-amine]
18 | 170 nM | COc1cc(Nc2nc3c(c(N4CC(C)(OC)C4)n2)CCC3c2ccc(F)cc2)ccc1-n1cnc(C)n1 (stereo not shown) [Example 192A, 7-(4-fluorophenyl)-4-(3-methoxy-3-methylazetidin-1-yl)-N-(3-methoxy-4-(3-methyl-1H-1,2,4-triazol-1-yl)phenyl)-6,7-dihydro-5H-cyclopenta[d]pyrimidin-2-amine]
19 | 16 nM | COc1cc(Nc2nc3c(c(N4CC(C)(OC)C4)n2)CCC3c2ccc(F)cc2)ccc1-n1cnc(C)n1 (stereo not shown) [Example 192B, 7-(4-fluorophenyl)-4-(3-methoxy-3-methylazetidin-1-yl)-N-(3-methoxy-4-(3-methyl-1H-1,2,4-triazol-1-yl)phenyl)-6,7-dihydro-5H-cyclopenta[d]pyrimidin-2-amine]

Second part, the molecule before the results:

Row | Structure (SMILES) | IC50
20 | CCNc1nc(Nc2ccc(-n3cnc(C)n3)c(F)c2)nc2c1CN(CC(F)F)CC2c1ccccc1 (stereo not shown) [Example 195A, 6-(2,2-difluoroethyl)-N4-ethyl-N2-(3-fluoro-4-(3-methyl-1H-1,2,4-triazol-1-yl)phenyl)-8-phenyl-5,6,7,8-tetrahydropyrido[4,3-d]pyrimidine-2,4-diamine] | 26 nM
21 | CCNc1nc(Nc2ccc(-n3cnc(Cl)c3)c(OC)c2)nc2c1CN(CC(F)F)CC2c1ccccc1 (stereo not shown) [Example 197, N4-ethyl-N2-(3-methoxy-4-(4-chloro-1H-13-imidazol-1-yl)phenyl)-8-phenyl-6-(2,2-difluoroethyl)-5,6,7,8-tetrahydropyrido[4,3-d]pyrimidine-2,4-diamine] | 16 nM
22 | CCNc1nc(Nc2ccc(-n3cnc(Cl)c3)c(OC)c2)nc2c1CN(CC(F)F)CC2c1ccccc1 (stereo not shown) [Example 197A, N4-ethyl-N2-(3-methoxy-4-(4-chloro-1H-13-imidazol-1-yl)phenyl)-8-phenyl-6-(2,2-difluoroethyl)-5,6,7,8-tetrahydropyrido[4,3-d]pyrimidine-2,4-diamine] | 60 nM

Source: patent US8637525B2, “Compounds for the reduction of beta-amyloid production” (Bristol-Myers Squibb Company, priority 2009, dated 2014)
